According to the supplement of paper PMC10307832:

Columns and labels:
Experiment in all cases: relative viability (nuclei count vs DMSO), 5 days (fraction); higher = more cells survive
Selisistat + Vorinostat = compound: C1CC(C2=C(C1)C3=C(N2)C=CC(=C3)Cl)C(=O)N [Selisistat] + O=C(CCCCCCC(=O)Nc1ccccc1)NO [Vorinostat] (partner 1 µM)
How it was run: (§1)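 One day after seeding in 1536-well plates, lung cancer cell lines were dosed by pin tool. Dosing was either single-drug or a fixed anchor-drug dose plus five library-drug doses (not always all listed) in √10 steps. After 5 days, nuclei were stained in one fix-and-stain step and counted on 4× images, and relative viability is the nuclei count of treated wells over that of vehicle wells, given as the median of duplicate plates.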

Serdemetan + Lapatinib = compound: c1ccc2c(CCNc3ccc(Nc4ccncc4)cc3)c[nH]c2c1 [Serdemetan] + CS(=O)(=O)CCNCc1ccc(-c2ccc3ncnc(Nc4ccc(OCc5cccc(F)c5)c(Cl)c4)c3c2)o1 [Lapatinib] (partner 2 µM)
How it was run: as §1

Selisistat + Decitabine = compound: C1CC(C2=C(C1)C3=C(N2)C=CC(=C3)Cl)C(=O)N [Selisistat] + Nc1ncn([C@H]2C[C@H](O)[C@@H](CO)O2)c(=O)n1 [Decitabine] (partner 2 µM)
How it was run: as §1

Serdemetan + Alpelisib = compound: c1ccc2c(CCNc3ccc(Nc4ccncc4)cc3)c[nH]c2c1 [Serdemetan] + Cc1nc(NC(=O)N2CCC[C@H]2C(N)=O)sc1-c1ccnc(C(C)(C)C(F)(F)F)c1 [Alpelisib] (partner 2 µM)
How it was run: as §1

Cell Line | relative viability (Selisistat + Vorinostat; first compound 0.4 µM) | relative viability (Selisistat + Vorinostat; first compound 1.265 µM) | relative viability (Selisistat + Vorinostat; first compound 4 µM) | relative viability (Selisistat + Vorinostat; first compound 12.65 µM) | relative viability (Selisistat + Vorinostat; first compound 40 µM) | relative viability (Serdemetan + Lapatinib; first compound 0.04 µM) | relative viability (Serdemetan + Lapatinib; first compound 0.1265 µM) | relative viability (Serdemetan + Lapatinib; first compound 0.4 µM) | relative viability (Serdemetan + Lapatinib; first compound 1.265 µM) | relative viability (Serdemetan + Lapatinib; first compound 4 µM) | relative viability (Selisistat + Decitabine; first compound 0.4 µM) | relative viability (Selisistat + Decitabine; first compound 1.265 µM) | relative viability (Selisistat + Decitabine; first compound 4 µM) | relative viability (Selisistat + Decitabine; first compound 12.65 µM) | relative viability (Selisistat + Decitabine; first compound 40 µM) | relative viability (Serdemetan + Alpelisib; first compound 0.04 µM) | relative viability (Serdemetan + Alpelisib; first compound 0.1265 µM) | relative viability (Serdemetan + Alpelisib; first compound 0.4 µM) | relative viability (Serdemetan + Alpelisib; first compound 1.265 µM) | relative viability (Serdemetan + Alpelisib; first compound 4 µM)
NCI-H2126 | 0.865 | 0.792 | 0.691 | 0.861 | 0.845 | 0.736 | 0.724 | 0.78 | 0.645 | 0.844 | 0.618 | 0.574 | 0.579 | 0.599 | 0.606 | 0.721 | 0.753 | 0.741 | 0.575 | 0.762
NCI-H2170 | 0.868 | 0.8 | 0.845 | 0.917 | 0.964 | 0.322 | 0.298 | 0.285 | 0.268 | 0.273 | 0.481 | 0.474 | 0.458 | 0.53 | 0.47 | 0.776 | 0.854 | 0.833 | 0.721 | 0.811
NCI-H2347 | 0.478 | 0.484 |  | 0.666 | 0.772 | 0.8 | 0.938 | 0.781 | 0.812 | 0.872 | 0.695 | 0.633 |  | 0.677 | 0.624 | 0.936 | 1.02 | 1.01 | 0.866 | 0.703
NCI-H2405 | 1.07 | 1.19 |  | 0.975 | 0.927 | 1 | 1.06 | 1.17 | 1.07 | 0.963 | 0.881 | 0.78 |  | 0.748 | 0.697 | 0.881 | 0.918 | 0.826 | 0.772 | 0.543
NCI-H3122 | 0.977 | 0.919 |  | 1.09 | 1.34 | 1 | 0.98 | 1 |  | 1.03 | 0.387 | 0.502 |  | 0.499 | 0.4 | 0.809 | 0.715 | 0.779 |  | 0.771
PC-3 [JPC-3] | 0.899 | 0.979 |  | 0.748 | 0.691 | 0.439 | 0.471 |  | 0.447 | 0.465 | 0.834 | 0.837 |  | 0.818 | 0.794 | 1.04 | 0.979 |  | 1.01 | 1.05
PC-14 | 0.914 | 0.764 | 0.843 | 0.776 | 0.931 | 0.335 | 0.3 | 0.295 | 0.259 | 0.251 | 0.201 | 0.217 | 0.221 | 0.237 | 0.243 | 0.954 | 0.93 | 0.784 | 0.852 | 0.825
RERF-LC-KJ | 0.665 | 0.759 | 0.731 | 0.763 | 0.708 | 0.757 | 0.811 | 0.826 | 0.8 | 0.754 | 0.806 | 0.601 | 0.593 | 0.61 | 0.614 | 0.804 | 0.832 | 0.777 | 0.801 | 0.643
SK-LU-1 | 0.747 | 0.792 | 1.02 | 0.821 | 0.927 | 0.758 | 0.772 | 0.822 | 0.781 | 0.612 | 0.716 | 0.675 | 0.676 | 0.604 | 0.679 | 1.14 | 1.07 | 0.944 | 0.758 | 0.669
SK-MES-1 | 1.13 | 1.15 | 1.01 | 1.1 | 1.18 | 0.416 | 0.503 | 0.466 | 0.381 | 0.387 | 0.397 | 0.446 | 0.312 | 0.325 | 0.331 | 0.836 | 0.792 | 0.74 | 0.834 | 0.526
SW 1573 | 0.761 | 0.94 |  | 1.19 | 1.03 | 1.09 | 1.11 | 1.05 | 0.93 | 0.596 | 0.604 | 0.453 | 0.347 | 0.502 | 0.459 | 0.7 | 0.791 | 0.722 | 0.463 | 0.385
